Results published in the NIST ThermoML archive (doi:10.1021/acs.jced.8b01236).
Numbers after ± are expanded uncertainties.

Assay: xn = mol fraction of the nth substance listed
Conditions: Liquid; for binary diffusion coefficient: Open capillary; for mass density: Pycnometric method

## CCCC[N+]1(C)CCCC1.O=S(=O)([N-]S(=O)(=O)C(F)(F)F)C(F)(F)F + O=C=O
298.15 K, 100 kPa, x2 = 0.2
  binary diffusion coefficient: 1.3e-10 m2/s
298.15 K, 996 kPa, x2 = 0.199
  mass density: 1385 ± 7 kg/m3
298.15 K, 1000 kPa, x2 = 0.2
  binary diffusion coefficient: 1.6e-10 m2/s
298.15 K, 1997 kPa, x2 = 0.379
  mass density: 1377 ± 6 kg/m3
298.15 K, 2000 kPa, x2 = 0.2
  binary diffusion coefficient: 3e-10 m2/s
298.15 K, 2502 kPa, x2 = 0.449
  mass density: 1371 ± 6 kg/m3
298.15 K, 3031 kPa, x2 = 0.51
  mass density: 1361 ± 6 kg/m3
298.15 K, 3511 kPa, x2 = 0.559
  mass density: 1351 ± 6 kg/m3
298.15 K, 4013 kPa, x2 = 0.602
  mass density: 1348 ± 6 kg/m3
298.15 K, 4504 kPa, x2 = 0.638
  mass density: 1345 ± 6 kg/m3
298.15 K, 5002 kPa, x2 = 0.674
  mass density: 1339 ± 6 kg/m3
298.15 K, 5512 kPa, x2 = 0.702
  mass density: 1336 ± 8 kg/m3
298.15 K, 6040 kPa, x2 = 0.728
  mass density: 1326 ± 10 kg/m3
298.15 K, 6378 kPa, x2 = 0.745
  mass density: 1330 ± 18 kg/m3
318.15 K, 1005 kPa, x2 = 0.156
  mass density: 1387 ± 7 kg/m3
318.15 K, 2046 kPa, x2 = 0.311
  mass density: 1391 ± 7 kg/m3
318.15 K, 3019 kPa, x2 = 0.436
  mass density: 1389 ± 6 kg/m3
318.15 K, 4000 kPa, x2 = 0.528
  mass density: 1397 ± 8 kg/m3
318.15 K, 6033 kPa, x2 = 0.638
  mass density: 1380 ± 12 kg/m3
318.15 K, 8002 kPa, x2 = 0.714
  mass density: 1378 ± 18 kg/m3
318.2 K, 100 kPa, x2 = 0.15
  binary diffusion coefficient: 2.2e-10 m2/s
318.2 K, 1000 kPa, x2 = 0.15
  binary diffusion coefficient: 2.9e-10 m2/s
318.2 K, 2000 kPa, x2 = 0.15
  binary diffusion coefficient: 3.3e-10 m2/s
338.15 K, 1019 kPa, x2 = 0.123
  mass density: 1368 ± 7 kg/m3
338.15 K, 2011 kPa, x2 = 0.23
  mass density: 1358 ± 28 kg/m3
338.15 K, 2520 kPa, x2 = 0.301
  mass density: 1369 ± 6 kg/m3
338.15 K, 3004 kPa, x2 = 0.345
  mass density: 1369 ± 6 kg/m3
338.15 K, 4000 kPa, x2 = 0.435
  mass density: 1371 ± 6 kg/m3
338.15 K, 5007 kPa, x2 = 0.495
  mass density: 1380 ± 8 kg/m3
338.15 K, 6020 kPa, x2 = 0.537
  mass density: 1357 ± 8 kg/m3
338.15 K, 7504 kPa, x2 = 0.606
  mass density: 1348 ± 8 kg/m3
338.15 K, 10012 kPa, x2 = 0.682
  mass density: 1349 ± 16 kg/m3
338.15 K, 12486 kPa, x2 = 0.712
  mass density: 1384 ± 18 kg/m3
338.15 K, 14895 kPa, x2 = 0.728
  mass density: 1387 ± 12 kg/m3

## CCC[N+]1(C)CCCC1.O=S(=O)([N-]S(=O)(=O)C(F)(F)F)C(F)(F)F + O=C=O
298.15 K, 100 kPa, x2 = 0.2
  binary diffusion coefficient: 1.3e-10 m2/s
298.15 K, 1000 kPa, x2 = 0.2
  binary diffusion coefficient: 1.8e-10 m2/s
298.15 K, 1009 kPa, x2 = 0.236
  mass density: 1464 ± 11 kg/m3
298.15 K, 2000 kPa, x2 = 0.2
  binary diffusion coefficient: 2.4e-10 m2/s
298.15 K, 2028 kPa, x2 = 0.389
  mass density: 1420 ± 17 kg/m3
298.15 K, 3030 kPa, x2 = 0.503
  mass density: 1411 ± 12 kg/m3
298.15 K, 3507 kPa, x2 = 0.553
  mass density: 1408 ± 9 kg/m3
298.15 K, 4038 kPa, x2 = 0.598
  mass density: 1401 ± 6 kg/m3
298.15 K, 4517 kPa, x2 = 0.632
  mass density: 1390 ± 8 kg/m3
298.15 K, 5014 kPa, x2 = 0.661
  mass density: 1386 ± 9 kg/m3
298.15 K, 5505 kPa, x2 = 0.688
  mass density: 1385 ± 15 kg/m3
298.15 K, 6003 kPa, x2 = 0.709
  mass density: 1373 ± 12 kg/m3
298.15 K, 6397 kPa, x2 = 0.725
  mass density: 1363 ± 22 kg/m3
318.15 K, 1055 kPa, x2 = 0.185
  mass density: 1441 ± 7 kg/m3
318.15 K, 2223 kPa, x2 = 0.323
  mass density: 1437 ± 6 kg/m3
318.15 K, 4005 kPa, x2 = 0.471
  mass density: 1407 ± 7 kg/m3
318.15 K, 5004 kPa, x2 = 0.528
  mass density: 1392 ± 7 kg/m3
318.15 K, 6004 kPa, x2 = 0.575
  mass density: 1374 ± 8 kg/m3
318.15 K, 7010 kPa, x2 = 0.621
  mass density: 1356 ± 9 kg/m3
318.15 K, 8010 kPa, x2 = 0.664
  mass density: 1366 ± 10 kg/m3
318.15 K, 16527 kPa, x2 = 0.731
  mass density: 1385 ± 8 kg/m3
318.15 K, 19966 kPa, x2 = 0.751
  mass density: 1406 ± 7 kg/m3
318.2 K, 100 kPa, x2 = 0.15
  binary diffusion coefficient: 2.7e-10 m2/s
318.2 K, 1000 kPa, x2 = 0.15
  binary diffusion coefficient: 3e-10 m2/s
318.2 K, 2000 kPa, x2 = 0.15
  binary diffusion coefficient: 3.7e-10 m2/s
338.15 K, 1009 kPa, x2 = 0.065
  mass density: 1400 ± 10 kg/m3
338.15 K, 2002 kPa, x2 = 0.198
  mass density: 1405 ± 9 kg/m3
338.15 K, 2508 kPa, x2 = 0.249
  mass density: 1393 ± 9 kg/m3
338.15 K, 3007 kPa, x2 = 0.328
  mass density: 1408 ± 12 kg/m3
338.15 K, 4008 kPa, x2 = 0.413
  mass density: 1404 ± 14 kg/m3
338.15 K, 4999 kPa, x2 = 0.474
  mass density: 1427 ± 13 kg/m3
338.15 K, 6006 kPa, x2 = 0.536
  mass density: 1430 ± 6 kg/m3
338.15 K, 7503 kPa, x2 = 0.612
  mass density: 1435 ± 10 kg/m3
